Here are results for 7 molecules from PubChem BioAssay (NCI).

Some test systems named below: OVCAR-5 ovarian; U251 CNS; SNB-19 CNS; CAKI-1 renal; HS 578T breast; COLO 205 colon; NCI/ADR-RES ovarian; ACHN renal; SF-539 CNS; UACC-62 melanoma.
Common to all, as to test: inhibition of tumour cell growth, NCI panel, 48 h

“And” between values parts separate entries of the source, which are not always exact repeats. Identical values can stand only once.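 Following 48 hours of exposure in 96-well plates, responses at five concentrations were used to interpolate endpoints linearly. GI50 marks 50% less growth. TGI: concentration producing complete growth inhibition.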

For the molecule `Oc1cc2ccccc2cc1-c1n[nH]c(=S)n1-c1ccc(Cl)cc1`, the GI50 was 27.6 µM in the experiment on OVCAR-5 ovarian; 13 µM with U251 CNS; 25.4 µM with SNB-19 CNS; 12.5 µM in the experiment on CAKI-1 renal; 12.4 µM in the experiment on HS 578T breast; 41.7 µM in the experiment with COLO 205 colon. In addition, the GI50 was 13.8 µM with NCI/ADR-RES ovarian, 25.8 µM in the experiment on ACHN renal, 15.3 µM in the experiment on SF-539 CNS and 7.88 µM in the experiment with UACC-62 melanoma. Moreover, the TGI was 95.6 µM in the experiment with OVCAR-5 ovarian; 90.9 µM in the experiment with U251 CNS; over 100 µM in the experiment with SNB-19 CNS; 39.4 µM in the experiment on CAKI-1 renal; 90.2 µM in the experiment on HS 578T breast; over 100 µM in the experiment on COLO 205 colon. In addition, the TGI in the experiment with NCI/ADR-RES ovarian was 64.1 µM; in the experiment on ACHN renal, over 100 µM; with SF-539 CNS it was 50.8 µM; with UACC-62 melanoma, 28.8 µM.

`Cc1nn(-c2ccc(Br)cc2)c(C)c1CC(=O)c1cc(O)ccc1O`: the GI50 in the experiment with OVCAR-5 ovarian was 16.2 µM; in the experiment with U251 CNS it was 10.1 µM; in the experiment with SNB-19 CNS, 15 µM; with CAKI-1 renal, 12.2 µM; in the experiment on HS 578T breast, 22.7 µM; with COLO 205 colon, 16.4 µM. The GI50 was 11.2 µM in the experiment with NCI/ADR-RES ovarian, 9.16 µM in the experiment with ACHN renal, 11.5 µM with SF-539 CNS and 4.24 µM in the experiment on UACC-62 melanoma. Also, the TGI in the experiment with OVCAR-5 ovarian is over 50 µM; in the experiment with U251 CNS, 21.8 µM; in the experiment with SNB-19 CNS, over 50 µM; with CAKI-1 renal, 27.3 µM; in the experiment on HS 578T breast, over 50 µM; with COLO 205 colon, over 50 µM. In addition, the TGI in the experiment on NCI/ADR-RES ovarian is 45.6 µM; in the experiment with ACHN renal it was 24.6 µM; in the experiment on SF-539 CNS, 28 µM; in the experiment with UACC-62 melanoma, 11.4 µM.

`O=C(/C=C/c1cccnc1)c1ccccc1O`: the GI50 in the experiment with OVCAR-5 ovarian was 19 µM; with U251 CNS, 22.2 µM; with SNB-19 CNS, 20.3 µM; in the experiment with CAKI-1 renal it was 17.3 µM; in the experiment with HS 578T breast, 35.9 µM; with COLO 205 colon it was 14.6 µM. In addition, the GI50 in the experiment with NCI/ADR-RES ovarian was 24.6 µM; in the experiment on ACHN renal, 16.7 µM; in the experiment with SF-539 CNS it was 14.4 µM; with UACC-62 melanoma, 16.2 µM. Further, the TGI with OVCAR-5 ovarian is 46.7 µM; in the experiment on U251 CNS it was 81.1 µM; in the experiment on SNB-19 CNS it was 62.5 µM; with CAKI-1 renal it was 42.4 µM; in the experiment with HS 578T breast, over 100 µM; in the experiment with COLO 205 colon, 30.1 µM. The TGI in the experiment with NCI/ADR-RES ovarian was over 100 µM; in the experiment on ACHN renal, 37.6 µM; with SF-539 CNS, 34.7 µM; with UACC-62 melanoma it was 35.3 µM.

Regarding `CCc1ccc(Nc2cc(C)nc3nc(C)nn23)cc1`, the GI50 with OVCAR-5 ovarian was over 100 µM; in the experiment on U251 CNS, 75.2 µM; in the experiment on SNB-19 CNS, 53.4 µM; with CAKI-1 renal it was 40.1 µM; in the experiment on HS 578T breast it was 39.3 µM; in the experiment on COLO 205 colon, 66.9 µM. The GI50 in the experiment on NCI/ADR-RES ovarian was 49.4 µM; with ACHN renal it was 34.8 µM; in the experiment with SF-539 CNS it was over 100 µM; in the experiment on UACC-62 melanoma, 37.7 µM. Moreover, the TGI in the experiment with OVCAR-5 ovarian, in the experiment with U251 CNS, in the experiment on SNB-19 CNS, with CAKI-1 renal, in the experiment with HS 578T breast and in the experiment on COLO 205 colon was over 100 µM each time. For the same molecule, the TGI in the experiment on NCI/ADR-RES ovarian, in the experiment on ACHN renal, with SF-539 CNS and in the experiment on UACC-62 melanoma was over 100 µM in each case.

With `C[C@]12CC[C@H]3[C@@H](C[C@@H]4N=C(c5ccc(O)cc5)S[C@@]45C[C@H](O)CC[C@]35C)[C@@H]1CC[C@@H]2O`, the GI50 was 13.3 µM in the experiment on OVCAR-5 ovarian; 2.23 µM in the experiment with U251 CNS; 7.95 µM in the experiment on SNB-19 CNS; 4.12 µM in the experiment on CAKI-1 renal; 1.59 µM with HS 578T breast; 9.14 µM with COLO 205 colon. The GI50 was 6.77 µM in the experiment on NCI/ADR-RES ovarian, 7.55 µM in the experiment with ACHN renal, 0.454 µM with SF-539 CNS and 2.43 µM in the experiment with UACC-62 melanoma. Further, the TGI in the experiment on OVCAR-5 ovarian was over 100 µM; with U251 CNS, 67.3 µM; in the experiment with SNB-19 CNS it was over 100 µM; in the experiment on CAKI-1 renal it was over 100 µM; in the experiment on HS 578T breast it was 60.1 µM; in the experiment with COLO 205 colon, over 100 µM. The TGI was over 100 µM in the experiment on NCI/ADR-RES ovarian, over 100 µM with ACHN renal, 3.23 µM in the experiment with SF-539 CNS and 7.64 µM in the experiment with UACC-62 melanoma.

For the molecule `NC[C@@](O)(c1ccc(Cl)cc1)c1ccc(-c2cn[nH]c2)cc1`, the GI50 with OVCAR-5 ovarian is 8.67 µM; in the experiment on U251 CNS it was 1.49 µM; with SNB-19 CNS, 3.75 µM and 1.82 µM; in the experiment with CAKI-1 renal, 0.73 µM and 1.27 µM; in the experiment with HS 578T breast it was 0.471 µM and 0.173 µM; with COLO 205 colon it was 1.48 µM. In addition, the GI50 is 3.48 µM and 2.2 µM in the experiment with NCI/ADR-RES ovarian; 1.64 µM in the experiment on ACHN renal; 1.01 µM with SF-539 CNS; 3.2 µM in the experiment with UACC-62 melanoma. Further, the TGI was over 10 µM in the experiment on OVCAR-5 ovarian; 3 µM in the experiment with U251 CNS; 3.18 µM with COLO 205 colon; 4.93 µM in the experiment on ACHN renal; 2.36 µM in the experiment on SF-539 CNS; over 10 µM in the experiment with UACC-62 melanoma.

`COc1ccc(/C=C/C(=O)c2ccc(Nc3ccnc4cc(Cl)ccc34)cc2)cc1`: the GI50 in the experiment with OVCAR-5 ovarian was over 100 µM; in the experiment with U251 CNS, over 100 µM; with SNB-19 CNS, over 100 µM; in the experiment with CAKI-1 renal, over 100 µM; with HS 578T breast, over 100 µM; with COLO 205 colon, 70.2 µM. Also, the GI50 is over 100 µM in the experiment on NCI/ADR-RES ovarian, over 100 µM with ACHN renal, over 100 µM in the experiment with SF-539 CNS and 62.6 µM in the experiment on UACC-62 melanoma. Also, the TGI with OVCAR-5 ovarian, in the experiment on U251 CNS, with SNB-19 CNS, in the experiment with CAKI-1 renal, with HS 578T breast and with COLO 205 colon was over 100 µM each time. In addition, the TGI in the experiment with NCI/ADR-RES ovarian, in the experiment with ACHN renal, in the experiment on SF-539 CNS and in the experiment on UACC-62 melanoma was over 100 µM each time.
